Reference: patent US20240382629A1, “HETEROBIVALENT AND HOMOBIVALENT AGENTS TARGETING FIBROBLAST ACTIVATION PROTEIN ALPHA AND/OR PROSTATE-SPECIFIC MEMBRANE ANTIGEN” (The Johns Hopkins University, priority 2021, published 2024)
Several values for one entry are separate records, joined by “and”; a condition that tells them apart may be missing. Equal values may be shown once.

Test: Biodistribution of [^18F]JHU1221785 with cold FAPI-04 blocker
Type: in vivo, mouse
Conditions: for % ID/g Bladder / % ID/g Blood / % ID/g Brain / % ID/g Fat / % ID/g Heart / % ID/g Kidney / % ID/g Large intestine / % ID/g Lung / % ID/g Muscle / % ID/g Pancreas / % ID/g Salivary gland / % ID/g Small intestine / % ID/g Spleen / % ID/g Stomach / % ID/g Tumor: single mouse
[1] = + Blocker Cold FAPI-04 (10 nmole), 60 min

Compound: N#C[C@@H]1CCCN1C(=O)CNC(=O)c1ccnc2ccc(OCCCNC(=O)[C@@H](CC(=O)O)NC(=O)[C@@H](CC(=O)O)NC(=O)c3ccc([18F])nc3)cc12 [[^18F]JHU1221785]
- % ID/g Mean Bladder (30 min): 2.81 % ID/g
- % ID/g Bladder (30 min): 0.93 % ID/g and 4.69 % ID/g
- % ID/g Mean Bladder (60 min): 0.84 % ID/g
- % ID/g Bladder (60 min): 0.76 % ID/g and 0.92 % ID/g
- % ID/g Mean Bladder [1]: 0.45 % ID/g
- % ID/g Bladder [1]: 0.23 % ID/g and 0.67 % ID/g
- % ID/g Mean Blood (30 min): 4.94 % ID/g
- % ID/g Blood (30 min): 5.98 % ID/g and 3.90 % ID/g
- % ID/g Mean Blood (60 min): 3.57 % ID/g
- % ID/g Blood (60 min): 2.56 % ID/g and 4.57 % ID/g
- % ID/g Mean Blood [1]: 4.68 % ID/g
- % ID/g Blood [1]: 0.11 % ID/g and 9.26 % ID/g
- % ID/g Mean Brain (30 min): 0.14 % ID/g
- % ID/g Brain (30 min): 0.14 % ID/g and 0.15 % ID/g
- % ID/g Mean Brain (60 min): 0.10 % ID/g
- % ID/g Brain (60 min): 0.09 % ID/g and 0.12 % ID/g
- % ID/g Mean Brain [1]: 0.03 % ID/g
- % ID/g Brain [1]: 0.02 % ID/g and 0.04 % ID/g
- % ID/g Mean Fat (30 min): 0.20 % ID/g
- % ID/g Fat (30 min): 0.21 % ID/g and 0.19 % ID/g
- % ID/g Mean Fat (60 min): 0.22 % ID/g
- % ID/g Fat (60 min): 0.22 % ID/g and 0.21 % ID/g
- % ID/g Mean Fat [1]: 0.12 % ID/g
- % ID/g Fat [1]: 0.03 % ID/g and 0.21 % ID/g
- % ID/g Mean Femur (30 min): 2.61 % ID/g
- % ID/g Mean Femur (60 min): 2.07 % ID/g
- % ID/g Mean Femur [1]: 1.51 % ID/g
- % ID/g Mean Heart (30 min): 2.26 % ID/g
- % ID/g Heart (30 min): 2.51 % ID/g and 2.01 % ID/g
- % ID/g Mean Heart (60 min): 1.56 % ID/g
- % ID/g Heart (60 min): 1.38 % ID/g and 1.73 % ID/g
- % ID/g Mean Heart [1]: 0.07 % ID/g
- % ID/g Heart [1]: 0.06 % ID/g and 0.07 % ID/g
- % ID/g Mean Kidney (30 min): 2.47 % ID/g
- % ID/g Kidney (30 min): 1.60 % ID/g and 3.33 % ID/g
- % ID/g Mean Kidney (60 min): 0.91 % ID/g
- % ID/g Kidney (60 min): 0.79 % ID/g and 1.04 % ID/g
- % ID/g Mean Kidney [1]: 0.46 % ID/g
- % ID/g Kidney [1]: 0.41 % ID/g and 0.51 % ID/g
- % ID/g Mean Large intestine (30 min): 0.72 % ID/g
- % ID/g Large intestine (30 min): 0.58 % ID/g and 0.86 % ID/g
- % ID/g Mean Large intestine (60 min): 0.69 % ID/g
- % ID/g Large intestine (60 min): 0.61 % ID/g and 0.78 % ID/g
- % ID/g Mean Large intestine [1]: 0.20 % ID/g
- % ID/g Large intestine [1]: 0.08 % ID/g and 0.33 % ID/g
- % ID/g Mean Liver (30 min): 7.32 % ID/g
- % ID/g Mean Liver (60 min): 7.84 % ID/g
- % ID/g Mean Liver [1]: 9.89 % ID/g
- % ID/g Mean Lung (30 min): 2.65 % ID/g
- % ID/g Lung (30 min): 2.77 % ID/g and 2.53 % ID/g
- % ID/g Mean Lung (60 min): 2.18 % ID/g
- % ID/g Lung (60 min): 1.70 % ID/g and 2.65 % ID/g
- % ID/g Mean Lung [1]: 0.17 % ID/g
- % ID/g Lung [1]: 0.13 % ID/g and 0.20 % ID/g
- % ID/g Mean Muscle (30 min): 0.96 % ID/g
- % ID/g Muscle (30 min): 0.81 % ID/g and 1.12 % ID/g
- % ID/g Mean Muscle (60 min): 0.98 % ID/g
- % ID/g Muscle (60 min): 1.06 % ID/g and 0.89 % ID/g
- % ID/g Mean Muscle [1]: 0.06 % ID/g
- % ID/g Muscle [1]: 0.04 % ID/g and 0.07 % ID/g
- % ID/g Mean Pancreas (30 min): 2.31 % ID/g
- % ID/g Pancreas (30 min): 1.92 % ID/g and 2.71 % ID/g
- % ID/g Mean Pancreas (60 min): 2.07 % ID/g
- % ID/g Pancreas (60 min): 1.96 % ID/g and 2.17 % ID/g
- % ID/g Mean Pancreas [1]: 0.13 % ID/g
- % ID/g Pancreas [1]: 0.05 % ID/g and 0.22 % ID/g
- % ID/g Mean Salivary gland (30 min): 2.93 % ID/g
- % ID/g Salivary gland (30 min): 2.81 % ID/g and 3.05 % ID/g
- % ID/g Mean Salivary gland (60 min): 3.45 % ID/g
- % ID/g Salivary gland (60 min): 2.17 % ID/g and 4.73 % ID/g
- % ID/g Mean Salivary gland [1]: 0.05 % ID/g
- % ID/g Salivary gland [1]: 0.04 % ID/g and 0.06 % ID/g
- % ID/g Mean Small intestine (30 min): 2.49 % ID/g
- % ID/g Small intestine (30 min): 2.60 % ID/g and 2.38 % ID/g
- % ID/g Mean Small intestine (60 min): 1.83 % ID/g
- % ID/g Small intestine (60 min): 1.65 % ID/g and 2.01 % ID/g
- % ID/g Mean Small intestine [1]: 3.54 % ID/g
- % ID/g Small intestine [1]: 0.88 % ID/g and 6.19 % ID/g
- % ID/g Mean Spleen (30 min): 1.00 % ID/g
- % ID/g Spleen (30 min): 1.03 % ID/g and 0.97 % ID/g
- % ID/g Mean Spleen (60 min): 0.93 % ID/g
- % ID/g Spleen (60 min): 0.78 % ID/g and 1.09 % ID/g
- % ID/g Mean Spleen [1]: 0.16 % ID/g
- % ID/g Spleen [1]: 0.08 % ID/g and 0.25 % ID/g
- % ID/g Mean Stomach (30 min): 0.82 % ID/g
- % ID/g Stomach (30 min): 0.72 % ID/g and 0.92 % ID/g
- % ID/g Mean Stomach (60 min): 0.71 % ID/g
- % ID/g Stomach (60 min): 0.60 % ID/g and 0.81 % ID/g
- % ID/g Mean Stomach [1]: 0.16 % ID/g
- % ID/g Stomach [1]: 0.09 % ID/g and 0.23 % ID/g
- % ID/g Mean Tumor (30 min): 1.24 % ID/g
- % ID/g Tumor (30 min): 1.14 % ID/g and 1.34 % ID/g
- % ID/g Mean Tumor (60 min): 2.23 % ID/g
- % ID/g Tumor (60 min): 2.59 % ID/g and 1.47 % ID/g
- % ID/g Mean Tumor [1]: 0.10 % ID/g
- % ID/g Tumor [1]: 0.08 % ID/g and 0.11 % ID/g
